# How the values were obtained:
# [1] = Temperature stability of dyed fabrics (colour fastness, ΔE); format: physicochemical; details: oven 80° c. for 4 h; for ΔE: before and after the stability test
# Method: (§1) In order to assess the stability and colour fastness of violacein and violacein derivatives dyed onto fabrics, dyed fabrics were subjected to a number of conditions. Fabrics were dyed according to Example 18 and colour coordinates and colour change before and after exposure to a given condition were determined as described in Example 18. To measure temperature stability, fabrics were incubated in an oven set to 80° c. for 4 h. To measure stability under acid and alkaline conditions, fabrics were fully submerged in water solutions set to pH 8 with NaOH and pH 5 with HCl and incubated at room temperature for 30 minutes. Fabrics were then incubated at 37° c. for 4 h. To measure stability during laundering, fabrics were washed at 30° c. under the “mix” setting of a Siemens IQ300 washing machine, then dried in a Siemens IQ300 dryer until dry. To measure artificial light stability, fabrics were placed under an LED lamp at room temperature for 16 h. To measure UV light stability, fabrics were placed under a UV lamp at room temperature for 1 h.
# [2] = Stability during laundering of dyed fabrics (colour fastness, ΔE); format: physicochemical; details: washed at 30° c.
# Method: as §1
# [3] = UV stability of dyed fabrics (colour fastness, ΔE); format: physicochemical; details: for ΔE: before vs after UV lamp, room temperature, 1 h
# Method: as §1
# S. cerevisiae S228c = test: Antimicrobial activity of dyed Nylon 6,6 fabric: final OD600 and % inhibition; format: cell-based
# Method: (§2) Violacein is reported as being a potent antibiotic, capable of inhibiting the growth of a wide range of microbial kingdoms including bacteria, yeast, fungi, viruses, protozoa and nematode. […] To test this, overnight cultures of wild-type E. coli DH5a and S. cerevisiae S228c strains were diluted in 5 mL of cultivation media (LB for E. coli, minimal media for S. cerevisiae) to a starting OD600 of 0.1. 1.5×1.5 cm dyed Nylon 6,6 fabric strips were sterilized by submerging in 75% ethanol for 15 mins and air drying in a laminar air flow hood before adding to each culture (with undyed Nylon 6,6 fabric as a negative control). […] This experiment provides evidence that all violacein derivatives display antimicrobial properties.
# E. coli DH5a = test: as above; format: cell-based
# Method: as §2
# [4] = Acrylic, after test (UV lamp, room temperature, 1 h)
# [5] = Bleached cotton, after test (UV lamp, room temperature, 1 h)
# [6] = Diacetate, after test (UV lamp, room temperature, 1 h)
# [7] = Nylon 6,6, after test (UV lamp, room temperature, 1 h)
# [8] = Polyester, after test (UV lamp, room temperature, 1 h)
# [9] = Wool, after test (UV lamp, room temperature, 1 h)
structure (smiles),measurement,setting,value
O=C1NC(c2c[nH]c3ccccc23)=C/C1=C1\C(=O)Nc2ccccc21 [deoxyviolacein],L,"[1]; Acrylic, After test",59.66
same,a,"[1]; Acrylic, After test",0.86
same,b,"[1]; Acrylic, After test",−2.82
same,L,"[1]; Acrylic, Before test",59.1
same,a,"[1]; Acrylic, Before test",1.55
same,b,"[1]; Acrylic, Before test",−1.29
same,ΔE,[1]; Acrylic,1.77
same,L,"[1]; Bleached cotton, After test",63.74
same,a,"[1]; Bleached cotton, After test",2.09
same,b,"[1]; Bleached cotton, After test",−8.13
same,L,"[1]; Bleached cotton, Before test",63.16
same,a,"[1]; Bleached cotton, Before test",1.56
same,b,"[1]; Bleached cotton, Before test",−7.66
same,ΔE,[1]; Bleached cotton,0.92
same,L,"[1]; Diacetate, After test",51.96
same,a,"[1]; Diacetate, After test",10.78
same,b,"[1]; Diacetate, After test",−13.7
same,L,"[1]; Diacetate, Before test",51.65
same,a,"[1]; Diacetate, Before test",10.65
same,b,"[1]; Diacetate, Before test",−14.56
same,ΔE,[1]; Diacetate,0.92
same,L,"[1]; Nylon 6,6, After test",45.2
same,a,"[1]; Nylon 6,6, After test",6.79
same,b,"[1]; Nylon 6,6, After test",−21.25
same,L,"[1]; Nylon 6,6, Before test",44.99
same,a,"[1]; Nylon 6,6, Before test",6.18
same,b,"[1]; Nylon 6,6, Before test",−21.43
same,ΔE,"[1]; Nylon 6,6",0.67
same,L,"[1]; Polyester, After test",65.03
same,a,"[1]; Polyester, After test",2.08
same,b,"[1]; Polyester, After test",−2.03
same,L,"[1]; Polyester, Before test",64.62
same,a,"[1]; Polyester, Before test",1.61
same,b,"[1]; Polyester, Before test",−2.79
same,ΔE,[1]; Polyester,0.98
same,L,"[1]; Wool, After test",66.12
same,a,"[1]; Wool, After test",1.93
same,b,"[1]; Wool, After test",−0.48
same,L,"[1]; Wool, Before test",66.67
same,a,"[1]; Wool, Before test",−0.09
same,b,"[1]; Wool, Before test",−0.62
same,ΔE,[1]; Wool,2.10
same,L,"[2]; Acrylic, After test",69.42
same,a,"[2]; Acrylic, After test",−1.13
same,b,"[2]; Acrylic, After test",0.45
same,L,"[2]; Acrylic, Before test",60.9
same,a,"[2]; Acrylic, Before test",0.39
same,b,"[2]; Acrylic, Before test",−2.66
same,ΔE,"[2]; Acrylic, before and after the stability test",9.20
same,L,"[2]; Bleached cotton, After test",69.57
same,a,"[2]; Bleached cotton, After test",0.39
same,b,"[2]; Bleached cotton, After test",−5.93
same,L,"[2]; Bleached cotton, Before test",61.14
same,a,"[2]; Bleached cotton, Before test",0.73
same,b,"[2]; Bleached cotton, Before test",−8.03
same,ΔE,"[2]; Bleached cotton, before and after the stability test",8.69
same,L,"[2]; Diacetate, After test",54.82
same,a,"[2]; Diacetate, After test",10.32
same,b,"[2]; Diacetate, After test",−14.22
same,L,"[2]; Diacetate, Before test",50.89
same,a,"[2]; Diacetate, Before test",9.08
same,b,"[2]; Diacetate, Before test",−15.27
same,ΔE,"[2]; Diacetate, before and after the stability test",4.25
same,L,"[2]; Nylon 6,6, After test",47.79
same,a,"[2]; Nylon 6,6, After test",6.03
same,b,"[2]; Nylon 6,6, After test",−20.63
same,L,"[2]; Nylon 6,6, Before test",44.46
same,a,"[2]; Nylon 6,6, Before test",6.19
same,b,"[2]; Nylon 6,6, Before test",−22.02
same,ΔE,"[2]; Nylon 6,6, before and after the stability test",3.61
same,L,"[2]; Polyester, After test",74.17
same,a,"[2]; Polyester, After test",−0.99
same,b,"[2]; Polyester, After test",−0.58
same,L,"[2]; Polyester, Before test",64.92
same,a,"[2]; Polyester, Before test",1.08
same,b,"[2]; Polyester, Before test",−5.1
same,ΔE,"[2]; Polyester, before and after the stability test",10.50
same,L,"[2]; Wool, After test",72.9
same,a,"[2]; Wool, After test",−0.9
same,b,"[2]; Wool, After test",3.2
same,L,"[2]; Wool, Before test",63.37
same,a,"[2]; Wool, Before test",−0.25
same,b,"[2]; Wool, Before test",−1.82
same,ΔE,"[2]; Wool, before and after the stability test",10.79
same,L,[3]; [4],61.34
same,a,[3]; [4],2.05
same,b,[3]; [4],−2.89
same,L,"[3]; Acrylic, before test",60.15
same,a,"[3]; Acrylic, before test",1.07
same,b,"[3]; Acrylic, before test",−2.07
same,ΔE,[3]; Acrylic,1.75
same,L,[3]; [5],62.17
same,a,[3]; [5],1.62
same,b,[3]; [5],−6.68
same,L,"[3]; Bleached cotton, before test",61.4
same,a,"[3]; Bleached cotton, before test",1.8
same,b,"[3]; Bleached cotton, before test",−7.92
same,ΔE,[3]; Bleached cotton,1.47
same,L,[3]; [6],53.68
same,a,[3]; [6],8.75
same,b,[3]; [6],−10.95
same,L,"[3]; Diacetate, before test",52.05
same,a,"[3]; Diacetate, before test",9.98
same,b,"[3]; Diacetate, before test",−14.88
same,ΔE,[3]; Diacetate,4.43
same,L,[3]; [7],46.19
same,a,[3]; [7],4.4
same,b,[3]; [7],−19.75
same,L,"[3]; Nylon 6,6, before test",45.92
same,a,"[3]; Nylon 6,6, before test",4.94
same,b,"[3]; Nylon 6,6, before test",−21.23
same,ΔE,"[3]; Nylon 6,6",1.60
same,L,[3]; [8],67.09
same,a,[3]; [8],1.19
same,b,[3]; [8],−3.68
same,L,"[3]; Polyester, before test",66.55
same,a,"[3]; Polyester, before test",1.03
same,b,"[3]; Polyester, before test",−2.87
same,ΔE,[3]; Polyester,0.99
same,L,[3]; [9],67.65
same,a,[3]; [9],0.75
same,b,[3]; [9],1.17
same,L,"[3]; Wool, before test",65.56
same,a,"[3]; Wool, before test",0.65
same,b,"[3]; Wool, before test",0.31
same,ΔE,[3]; Wool,2.26
same,Final OD600,"S. cerevisiae S228c; S. cerevisiae cultured overnight at 30° c. with dyed Nylon 6,6 fabric strip, starting OD600 0.1",4.99
same,% Inhibition,"S. cerevisiae S228c; S. cerevisiae, dyed Nylon 6,6 fabric vs undyed fabric control",6.90%
same,Final OD600,"E. coli DH5a; E. coli cultured overnight at 30° c. with dyed Nylon 6,6 fabric strip, starting OD600 0.1",4.62
same,% Inhibition,"E. coli DH5a; E. coli, dyed Nylon 6,6 fabric vs undyed fabric control",11.45%
